Assay results taken from patent US20240025852A1, “T-TYPE CALCIUM CHANNEL MODULATORS AND METHODS OF USE THEREOF” (PRAXIS PRECISION MEDICINES, INC., priority 2020, published 2024).

How the values were obtained:
[1] = Hμrel Low Clearance Assay; format: in vitro ADME, human; set-up: % of Control (intrinsic clearance relative to the control compound): tested at 1 µM; details: HμRELhumanPool 96-well hepatic co-culture, human hepatic co-culture, 1 μM substrate, 0-72 hr incubation, control = geometric mean of 3 replicates
Method: (§1) The Hμrel Low Clearance Assay was performed to determine the stability of deuterated compounds described herein and calculate changes in clearance relative to the control compound (undeuterated compound) that has the following structure:
(§2) HμRELhumanPool™ 96-well hepatic co-culture plates were media changed and cells were allowed to acclimatize at 37° C. for 20 hr. HμREL® incubation media (serum free) and test compound diluted from a 1000×DMSO stock (final substrate concentration 1 μM; final DMSO concentration 0.1%) were added to the HμREL© 96-well co-culture system at a final cell number of 30,000 cells per well to initiate the reaction. The final incubation volume was 80 μL per time point and two control compounds were included for reference (ketoprofen and prednisolone). All clearance assessments were performed in singlicate with the exception of the undeuterated control compound, which was tested in duplicate on two separate days for a total of 4 replicates. Each compound was incubated for 0, 2, 6, 24, 48 and 72 hr. The reactions were terminated by transferring 60 μL of incubate to 180 μL acetonitrile containing internal standard at the appropriate time points. The crash plates were centrifuged at 3000 rpm at 4° C. for 20 min to precipitate residual protein. Following protein precipitation, sample supernatants were combined in cassettes of up to 4 compounds and analyzed using generic LCMS/MS conditions.
(§3) LC-MS/MS chromatograms were analyzed by peak area ratio (test article peak area/internal standard peak area) and natural log transformed, and plotted against time. The slope of the line was determined to calculate elimination rate constant. Subsequently, half-life (t1/2) and intrinsic clearance (CLint) were calculated using the following equations: […]
(§4) Average clearance of the control compound was determined by taking the geometric mean of 3 of the four replicates. The fourth replicate was excluded from the average determination as an outlier.

[2] = system: HμRELhumanPool 96-well hepatic co-culture; test: Hμrel Low Clearance Assay; format: in vitro ADME, human; set-up: % of Control (intrinsic clearance relative to the control compound): tested at 1 µM; details: for Half-Life: human hepatic co-culture, 1 μM substrate, 0-72 hr incubation; for % of Control (intrinsic clearance relative to the control compound): observed CLint divided by average CLint of undeuterated control compound
Method: as §1, §2, §3, §4

[3] = molecular target: T1, Recombinant CYP3A4 Supersomes (Homo sapiens, UniProt P08684); test: Recombinant CYP3A4 Clearance Assay; format: in vitro ADME; details: for % of Control (intrinsic clearance relative to the control compound): observed CLint divided by average CLint of undeuterated control compound; for Half-Life / CLint: recombinant CYP3A4 50 pmol/mL, 1 μM substrate, NADPH; for Half-Life: 0-120 minutes; for CLint: control = geometric mean of 3 replicates
T1 construct: purchased
T1 sequence (P08684 whole entry): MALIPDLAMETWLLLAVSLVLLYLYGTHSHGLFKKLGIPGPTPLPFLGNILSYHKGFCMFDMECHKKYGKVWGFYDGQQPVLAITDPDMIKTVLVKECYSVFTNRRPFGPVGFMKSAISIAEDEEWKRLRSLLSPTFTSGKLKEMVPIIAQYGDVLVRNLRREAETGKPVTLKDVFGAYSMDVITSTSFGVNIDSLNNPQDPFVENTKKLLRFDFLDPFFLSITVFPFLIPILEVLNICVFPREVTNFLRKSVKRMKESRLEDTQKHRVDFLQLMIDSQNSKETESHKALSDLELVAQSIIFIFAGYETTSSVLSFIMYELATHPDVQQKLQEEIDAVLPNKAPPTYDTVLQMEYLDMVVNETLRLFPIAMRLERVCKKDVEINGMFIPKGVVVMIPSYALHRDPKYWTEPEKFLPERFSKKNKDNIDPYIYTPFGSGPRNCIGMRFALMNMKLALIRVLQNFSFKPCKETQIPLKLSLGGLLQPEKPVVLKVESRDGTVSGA
Method: The CYP3A4 Clearance Assay was performed to determine the stability of deuterated compounds described herein and calculate changes in clearance relative to the control compound (undeuterated compound) that has the following structure:
Recombinant CYP3A4 Supersomes were prepared in 100 mM potassium phosphate buffer (50 pmol/mL final recombinase) and 80 μL aliquots were delivered per well to 96-well reaction plates containing 10 μL/well stock working solution containing substrate at 10× final concentration in 0.1:9.9:90 DMSO:ACN:100 mM phosphate buffer. Final substrate concentration during incubation was 1 μM. Reaction mixtures were pre-incubated at 37° C. for 10 minutes, prior to addition of 10 μL/well of NADPH regenerating system to initiate the reaction (β-Nicotinamide adenine dinucleotide phosphate) or 100 mM phosphate as a buffer control.
Clearance assessments were performed for test compounds in singlicate except for the control compound, which was tested in triplicate. Incubations were maintained at 37° C. for 0, 5, 15, 30, 45, 60, 90, and 120 minutes (or 0 and 120 minutes for buffer control). The reactions were terminated with 3× volume of cold (4° C.) acetonitrile (ACN) containing 200 ng/mL tolbutamide and 200 ng/mL labetalol as internal standards (IS). The crash plates were centrifuged at 4000 rpm at 4° C. for 20 min to precipitate residual protein. Following protein precipitation, sample supernatants were harvested and 3× volume of HPLC grade water was added to each sample for chromatography purposes. Plates were sealed and shaken for 10 minutes prior to LC-MS/MS analysis using generic LCMS/MS conditions.
as §3
Average intrinsic clearance of the control compound was determined by taking the geometric mean of 3 replicates.

SMILES | hepatocyte CLint at 1 μM ([1]; human) [µL/min/1e6 cells] | Half-Life [2] [h] | % of Control (intrinsic clearance relative to the control compound) [2] [%] | % of Control (intrinsic clearance relative to the control compound) [3] [%] | Half-Life [3] [h] | CLint [3] [µL/min/pmol] | hepatocyte CLint at 1 μM [1] [µL/min/1e6 cells]
[2H]C([2H])(C(=O)NC(C([2H])([2H])[2H])(C([2H])([2H])[2H])C([2H])([2H])[2H])N1CCC(CNC(=O)c2cc(F)cc(Cl)c2)CC1 [Compound 15, 3-chloro-N-[[1-[1,1-dideuterio-2-oxo-2-[[2,2,2-trideuterio-1,1-bis(trideuteriomethyl)ethyl]amino]ethyl]-4-piperidyl]methyl]-5-fluoro-benzamide] | 1.35 | 22.67 | 95.4 | 82.9 | 0.158 | 1.46 | –
[2H]C1([2H])CC(CNC(=O)c2cc(F)cc(Cl)c2)CC([2H])([2H])N1CC(=O)NC(C([2H])([2H])[2H])(C([2H])([2H])[2H])C([2H])([2H])[2H] [Compound 16, 3-chloro-5-fluoro-N-[[2,2,6,6-tetradeuterio-1-[2-oxo-2-[[2,2,2-trideuterio-1,1-bis(trideuteriomethyl)ethyl]amino]ethyl]-4-piperidyl]methyl]benzamide] | – | 28.33 | 76.3 | 61.4 | 0.213 | 1.08 | 1.08
[2H]C([2H])(C(=O)NC(C)(C([2H])([2H])[2H])C([2H])([2H])[2H])N1CCC(CNC(=O)c2cc(F)cc(Cl)c2)CC1 [Compound 17, 3-chloro-N-[[1-[1,1-dideuterio-2-oxo-2-[[2,2,2-trideuterio-1-methyl-1-(trideuteriomethyl)ethyl]amino]ethyl]-4-piperidyl]methyl]-5-fluoro-benzamide] | 1.18 | 26.17 | 83.4 | 72.2 | 0.182 | 1.27 | –
[2H]C1([2H])CC(CNC(=O)c2cc(F)cc(Cl)c2)CC([2H])([2H])N1CC(=O)NC(C)(C([2H])([2H])[2H])C([2H])([2H])[2H] [Compound 19, 3-chloro-5-fluoro-N-[[2,2,6,6-tetradeuterio-1-[2-oxo-2-[[2,2,2-trideuterio-1-methyl-1-(trideuteriomethyl)ethyl]amino]ethyl]-4-piperidyl]methyl]benzamide] | 0.718 | 43 | 51.5 | 62.2 | 0.212 | 1.09 | –
[2H]C([2H])([2H])C(C)(NC(=O)CN1C([2H])([2H])C([2H])([2H])C([2H])(CNC(=O)c2cc(F)cc(Cl)c2)C([2H])([2H])C1([2H])[2H])C([2H])([2H])[2H] [Compound 20, 3-chloro-5-fluoro-N-[[2,2,3,3,4,5,5,6,6-nonadeuterio-1-[2-oxo-2-[[2,2,2-trideuterio-1-methyl-1-(trideuteriomethyl)ethyl]amino]ethyl]-4-piperidyl]methyl]benzamide] | 0.803 | 38.33 | 56.7 | 61.5 | 0.213 | 1.08 | –
[2H]C([2H])(C(=O)NC(C)(C)C([2H])([2H])[2H])N1CCC(CNC(=O)c2cc(F)cc(Cl)c2)CC1 [Compound 21, 3-chloro-N-[[1-[1,1-dideuterio-2-oxo-2-[(2,2,2-trideuterio-1,1-dimethyl-ethyl)amino]ethyl]-4-piperidyl]methyl]-5-fluoro-benzamide] | 1.46 | 21.17 | 103 | 94.4 | 0.138 | 1.66 | –
[2H]C1([2H])CC(CNC(=O)c2cc(F)cc(Cl)c2)CC([2H])([2H])N1CC(=O)NC(C)(C)C([2H])([2H])[2H] [Compound 22, 3-chloro-5-fluoro-N-[[2,2,6,6-tetradeuterio-1-[2-oxo-2-[(2,2,2-trideuterio-1,1-dimethyl-ethyl)amino]ethyl]-4-piperidyl]methyl]benzamide] | 0.872 | 35.33 | 62.6 | 87.5 | 0.15 | 1.54 | –
[2H]C1([2H])CN(CC(=O)NC(C)(C([2H])([2H])[2H])C([2H])([2H])[2H])CC([2H])([2H])C1CNC(=O)c1cc(F)cc(Cl)c1 [Compound 23, 3-chloro-5-fluoro-N-[[3,3,5,5-tetradeuterio-1-[2-oxo-2-[[2,2,2-trideuterio-1-methyl-1-(trideuteriomethyl)ethyl]amino]ethyl]-4-piperidyl]methyl]benzamide] | 0.908 | 34 | 65.2 | 86.2 | 0.152 | 1.52 | –
CC(C)(C)NC(=O)CN1CCC(CNC(=O)c2cc(F)cc(Cl)c2)CC1 [Control, reference compound] | 1.42 | 22.17 | 100 | 100 | 0.132 | 1.76 | –
